Experimental data: patent US20240239788A1, “SMALL MOLECULE INHIBITORS OF KRAS G12D MUTANT” (Merck Sharp & Dohme LLC, priority 2021, published 2024)
Structures can show the parent of a compound that is named as a salt. Where two headings read alike, the source gives them in different places. Each block holds one molecule with its values, some of them ahead of it.

Assays:
[1] = molecular target: KRAS protein containing G12D mutation (Homo sapiens (Human), UniProt P01116, G12D); assay: SOS-catalyzed nucleotide exchange assay (GNE), TR-FRET; type: biochemical; conditions: biotinylated KRAS G12D, SOS and GTP, 60-minute incubation
Description: Compounds are added to this complex and then after a 60-minute incubation time the mixture is treated with SOS and unlabeled GTP. Small molecule inhibitors stabilize the Bodipy-GDP complex whereas the untreated protein rapidly exchanges Bodipy-GDP for unlabeled GTP resulting in reduced TR-FRET signal.
This solution is referred to as biotinylated KRAS G12D stock solution.

[2] = system: AsPC-1 cells containing homozygous KRAS-G12D activating mutation; assay: Cellular phospho-ERK assay with 10% FBS (Examples 107a-256); type: cell-based
Description: 5% CO2 for 2 hours. […] Assay plates were read on a EnVision Multimode Plate Reader (PerkinElmer) and the ratio of p-Erk vs total Erk in each well was used as the final readout.

[3] = Homo sapiens, ASPC1, 2 h, read-out: IC50 (nM) pERK (cell with FBS 10%), AsPC-1 cells, 10% fetal bovine serum, 2 hours, ratio of p-Erk vs total Erk
[4] = read-out: IC50 (nM) pERK (cell with FBS 10%), AsPC-1 cells, 10% fetal bovine serum, 2 hours, ratio of p-Erk vs total Erk

Sequence of KRAS protein containing G12D mutation (P01116 other isoform, or with tags, fused parts or gaps G12D (already in the parent)): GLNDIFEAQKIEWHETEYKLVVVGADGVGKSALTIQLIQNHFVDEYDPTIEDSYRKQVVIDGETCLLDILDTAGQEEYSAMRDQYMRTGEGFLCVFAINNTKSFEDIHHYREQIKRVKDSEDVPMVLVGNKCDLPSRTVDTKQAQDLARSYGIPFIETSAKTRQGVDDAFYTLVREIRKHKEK

SMILES: CCc1cccc2cccc(-c3c(F)cc4c(N5C[C@H]6CC[C@@](C)(C5)N6)nc(OC[C@@]56CCCN5C[C@H](F)C6)nc4c3F)c12 [Ex. 141, 7-(8-ethylnaphthalen-1-yl)-6,8-difluoro-2-(((2R,7aS)-2-fluorotetrahydro-1H-pyrrolizin-7a(5H)-yl)methoxy)-4-((1S,5R)-1-methyl-3,8-diazabicyclo[3.2.1]octan-3-yl)-quinazoline, TFA]
IC50 [1]: 139 nM | IC50 [2, 3]: 16400 nM

SMILES: C#Cc1csc2ccnc(-c3c(F)cc4c(N5C[C@H]6CC[C@@H](C5)N6)nc(OC[C@@]56CCCN5C[C@H](F)C6)nc4c3F)c12 [Ex. 152, 4-(4-((1R,5S)-3,8-diazabicyclo[3.2.1]octan-3-yl)-6,8-difluoro-2-(((2R,7aS)-2-fluorotetrahydro-1H-pyrrolizin-7a(5H)-yl)-methoxy)quinazolin-7-yl)-3-ethynylthieno[3,2-c]pyridine]
IC50 [1]: 848 nM | IC50 [2, 3]: 5190 nM

SMILES: C[C@]12CC[C@H](CN(c3nc(OC[C@@]45CCCN4C[C@H](F)C5)nc4c(F)c(-c5cc(O)cc6cccc(C7CC7)c56)c(F)cc34)C1)N2 [Ex. 159, 5-cyclopropyl-4-(6,8-difluoro-2-(((2R)-2-fluorotetrahydro-1H-pyrrolizin-7a(5H)-yl)-methoxy)-4-((1S,5R)-1-methyl-3,8-diaza-bicyclo[3.2.1]octan-3-yl)quinazolin-7-yl)-naphthalen-2-ol]
IC50 [1]: 4.28 nM | IC50 [2, 3]: 139 nM

SMILES: C[C@]12CCC(CN(c3nc(OC[C@@]45CCCN4C[C@H](F)C5)nc4c(F)c(-c5cc(O)cc6cccc(Cl)c56)c(F)c(F)c34)C1)N2 [Ex. 172, 5-chloro-4-(5,6,8-trifluoro-2-(((2R,7aS)-2-fluorotetrahydro-1H-pyrrolizin-7a(5H)-yl)-methoxy)-4-((1S,5R)-1-methyl-3,8-diaza-bicyclo[3.2.1]octan-3-yl)quinazolin-7-yl)-naphthalen-2-ol, 2TFA]
IC50 [1]: 17.1 nM | IC50 [2, 3]: 3500 nM

SMILES: CN1CCC[C@H]1COc1nc(N2C[C@H]3CC[C@@](C)(C2)N3)c2cc(F)c(-c3cc(O)cc4cccc(Cl)c34)c(F)c2n1 [Ex. 185, 5-chloro-4-(6,8-difluoro-4-((1S,5R)-1-methyl-3,8-diaza-bicyclo-[3.2.1]octan-3-yl)-2-(((S)-1-methyl-pyrrolidin-2-yl)meth-oxy)quinazolin-7-yl)-naphthalen-2-ol]
IC50 [1]: 732 nM | IC50 [2, 3]: 7040 nM

SMILES: C[C@]12CC[C@H](CN(c3nc(OC[C@@]45CCCN4C[C@H](F)C5)nc4c(F)c(-c5c6cn[nH]c6cc6cccc(Cl)c56)c(F)cc34)C1)N2 [Ex. 187, 5-chloro-4-(6,8-difluoro-2-(((2R,7aS)-2-fluorotetrahydro-1H-pyrrolizin-7a(5H)-yl)-methoxy)-4-((1S,5R)-1-methyl-3,8-diaza-bicyclo[3.2.1]octan-3-yl)quinazolin-7-yl)-1H-benzo[f]indazole]
IC50 [1]: 27.3 nM | IC50 [2, 3]: 1100 nM

SMILES: C[C@]12CC[C@H](CN(c3nc(OC[C@@]45CCCN4C[C@H](F)C5)nc4c(F)c(-c5nc(N)nc6cccc(Cl)c56)c(F)cc34)C1)N2 [Ex. 188, 5-chloro-6′,8′-difluoro-2′-(((2R,7aS)-2-fluoro-tetrahydro-1H-pyrrol-izin-7a(5H)-yl)meth-oxy)-4'-((1S,5R)-1-methyl-3,8-diaza-bicyclo[3.2.1]octan-3-yl)-[4,7′-biquinazolin]-2-amine]
IC50 [1]: 3400 nM | IC50 [2, 3]: 30000 nM

SMILES: Fc1cc2c(N3C[C@H]4CC[C@@H](C3)N4)nc(OC[C@@]34CCCN3C[C@H](F)C4)nc2c(F)c1-c1ccnc2cccc(Cl)c12 [Ex. 194, 4-((1R,5S)-3,8-diaza-bicyclo[3.2.1]octan-3-yl)-7-(5-chloroquinolin-4-yl)-6,8-difluoro-2-(((2R,7aS)-2-fluoro-tetrahydro-1H-pyrrol-izin-7a(5H)-yl)meth-oxy)quinazoline]
IC50 [1]: 1920 nM | IC50 [2, 3]: 11800 nM

SMILES: C#Cc1cccc2cc3[nH]ncc3c(-c3c(F)cc4c(N5C[C@H]6CC[C@@](C)(C5)N6)nc(OC[C@@]56CCCN5C[C@H](F)C6)nc4c3F)c12 [Ex. 195, 4-(6,8-difluoro-2-(((2R, 7aS)-2-fluorotetra-hydro-1H-pyrrolizin-7a(5H)-yl)methoxy)-4-((1S,5R)-1-methyl-3,8-diazabicyclo[3.2.1]-octan-3-yl)quinazolin-7-yl)-5-ethynyl-1H-benzo[f]indazole]
IC50 [1]: 4.36 nM | IC50 [2, 3]: 79.6 nM

SMILES: C#Cc1ccc(F)c2cccc(-c3c(F)cc4c(N5C[C@H]6CC[C@@](C)(C5)N6)nc(OC[C@@]56CCCN5C[C@H](F)C6)nc4c3F)c12 [Ex. 196, 7-(8-ethynyl-5-fluoro-naphthalen-1-yl)-6,8-difluoro-2-(((2R,7aS)-2-fluorotetrahydro-1H-pyrrolizin-7a(5H)-yl)-methoxy)-4-((1S,5R)-1-methyl-3,8-diaza-bicyclo[3.2.1]octan-3-yl)quinazoline]
IC50 [1]: 45.7 nM | IC50 [2, 3]: 3410 nM

SMILES: Oc1c(F)cc(Cl)c(Cl)c1-c1c(Cl)cc2c(N3C[C@H]4CC[C@@H](C3)N4)nc(OC[C@@]34CCCN3C[C@H](F)C4)nc2c1F [Ex. 199, 2-(4-((1R,5S)-3,8-diazabicyclo[3.2.1]-octan-3-yl)-6-chloro-8-fluoro-2-(((2R,7aS)-2-fluorotetrahydro-1H-pyrrolizin-7a(5H)-yl)-methoxy)quinazolin-7-yl)-3,4-dichloro-6-fluorophenol]
IC50 [1]: 2620 nM | IC50 [2, 3]: 30000 nM

SMILES: CN(C[C@@]1(COc2nc(N3C[C@H]4CC[C@@](C)(C3)N4)c3cc(F)c(-c4cc(O)cc5cccc(Cl)c45)c(F)c3n2)CC1(F)F)[C@@H]1CCC[C@H]1O [Ex. 217a, 5-chloro-4-(2-(((R)-2,2-difluoro-1-((((1R,2R)-2-hydroxycyclopentyl)-(methyl)amino)methyl)cyclopropyl)methoxy)-6,8-difluoro-4-((1S,5R)-1-methyl-3,8-diazabicyclo[3.2.1]octan-3-yl)quinazolin-7-yl)naphthalen-2-ol]
IC50 [1]: 12.7 nM | IC50 [2, 3]: 2640 nM

SMILES: CN(C[C@@]1(COc2nc(N3C[C@H]4CC[C@@](C)(C3)N4)c3cc(F)c(-c4cc(O)cc5cccc(Cl)c45)c(F)c3n2)CC1(F)F)[C@@H]1CCC[C@H]1O [Ex. 217b]
IC50 [1]: 675 nM | IC50 [2, 4]: 8570 nM

SMILES: COCCN(C)C[C@@]1(COc2nc(N3CC4CC[C@@](C)(C3)N4)c3cc(F)c(-c4c(C(F)(F)F)c(C)cc5[nH]ncc45)c(F)c3n2)CC1(F)F [Ex. 223, (1S,5R)-3-(2-(((R)-2,2-difluoro-1-(((2-methoxyethyl)(methyl)amino)-methyl)cyclopropyl)methoxy)-6,8-difluoro-7-(6-methyl-5-(trifluorometh-yl)-1H-indazol-4-yl)quinazolin-4-yl)-1-methyl-3,8-diazabicyclo[3.2.1]-ocan-8-ium 2,2,2-trifluoroacetate]
IC50 [1]: 425 nM | IC50 [2, 3]: 27300 nM

SMILES: Cc1cc(N)nc(-c2c(Cl)cc3c(N4C[C@H]5CC[C@@H](C4)N5)nc(OC[C@@]45CCCN4C[C@H](F)C5)nc3c2F)c1C(F)(F)F [Ex. 228b, 6-(4-((1R,5S)-3,8-diazabicyclo[3.2.1]octan-3-yl)-6-chloro-8-fluoro-2-(((2R,7aS)-2-fluorotetrahydro-1H-pyrrolizin-7a(5H)-yl)methoxy)quinazolin-7-yl)-4-methyl-5-(trifluoromethyl)pyridin-2-amine]
IC50 [1]: 2.43 nM | IC50 ([2]; Homo sapiens, ASPC1, 2 h, read-out: IC50 (nM) pERK (cell with FBS 10%)): 64.4 nM

IC50 [1]: 64 nM | IC50 [2, 4]: 785 nM
SMILES: Cc1n[nH]c2ncc(C(F)(F)F)c(-c3c(F)cc4c(N5C[C@H]6CC[C@@H](C5)N6)nc(OC[C@@]56CCCN5C[C@H](F)C6)nc4c3F)c12 [Ex. 234, 4-((1R,5S)-3,8-diazabicyclo[3.2.1]octan-3-yl)-6,8-difluoro-2-(((2R,7aS)-2-fluorotetrahydro-1H-pyrrolizin-7a(5H)-yl)methoxy)-7-(3-methyl-5-(trifluoromethyl)-1H-pyrazolo[3.4-b]pyridin-4-yl)quinazoline]

IC50 [1]: 3.11 nM | IC50 [2, 4]: 68.7 nM
SMILES: Cc1c(F)c(N)nc(-c2c(Cl)cc3c(N4C[C@H]5CC[C@@H](C4)N5)nc(OC[C@@]45CCCN4C[C@H](F)C5)nc3c2F)c1C(F)(F)F [Ex. 236]

SMILES: Cc1cc(N)nc(-c2c(F)cc3c(N4C[C@H]5CC[C@@H](C4)N5)nc(OC[C@@]45CCCN4C[C@H](F)C5)nc3c2F)c1C1CC1 [Ex. 237, 6-(4-((1R,5S)-3,8-diazabicyclo[3.2.1]octan-3-yl)-6,8-difluoro-2-(((2R,7aS)-2-fluorotetrahydro-1H-pyrrolizin-7a(5H)-yl)methoxy)quinazolin-7-yl)-5-cyclopropyl-4-methylpyridin-2-amine]
IC50 [1]: 57.6 nM | IC50 [2, 3]: 508 nM

SMILES: Cc1cc(N)nc(-c2c(Cl)cc3c(N4C[C@H]5CC[C@@](C)(C4)N5)nc(OC[C@@]45CCCN4C[C@H](F)C5)nc3c2F)c1C(F)(F)F [Ex. 238a, 6-(6-chloro-8-fluoro-2-(((2R,7aS)-2-fluorotetrahydro-1H-pyrrolizin-7a(5H)-yl)methoxy)-4-((1S,5R)-1-methyl-3,8-diazabicyclo[3.2.1]octan-3-yl)quinazolin-7-yl)-4-methyl-5-(trifluoromethyl)pyridin-2-amine]
IC50 [1]: 25.7 nM | IC50 [2, 3]: 1590 nM

SMILES: C[C@]12CC[C@H](CN(c3nc(OC[C@@H]4CC[C@]5(CO)CCCN45)nc4c(F)c(-c5cc(O)cc6cccc(Cl)c56)c(F)cc34)C1)N2 [Ex. 243b, 5-chloro-4-(6,8-difluoro-2-(((3S,7aS)-7a-(hydroxymethyl)hexahydro-1H-pyrrolizin-3-yl)methoxy)-4-((1S,5R)-1-methyl-3,8-diazabicyclo[3.2.1]octan-3-yl)quinazolin-7-yl)naphthalen-2-ol]
IC50 [1]: 23.1 nM | IC50 [2, 3]: 20500 nM
